PubChem BioAssay AID463094 (The Scripps Research Institute Molecular Screening Center, 2010)
Activity calls are given as the source filed them.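 The calls were made as follows: active = inhibition at or above 90%; inactive = inhibition below 90%.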

Target: Glutathione S-transferase omega-1 (Homo sapiens) (UniProt P78417)
Experiment: cellular GSTO1 activity blockade by competitive ABPP – cell-based, MDA-MB-435, in-gel fluorescence, late-stage follow-up (AID 463094)
Conditions: MDA-MB-435 in situ, 1 h, at 1 µM, hits give high values

Sequence of Glutathione S-transferase omega-1 (Homo sapiens) (P78417 whole entry, looked up): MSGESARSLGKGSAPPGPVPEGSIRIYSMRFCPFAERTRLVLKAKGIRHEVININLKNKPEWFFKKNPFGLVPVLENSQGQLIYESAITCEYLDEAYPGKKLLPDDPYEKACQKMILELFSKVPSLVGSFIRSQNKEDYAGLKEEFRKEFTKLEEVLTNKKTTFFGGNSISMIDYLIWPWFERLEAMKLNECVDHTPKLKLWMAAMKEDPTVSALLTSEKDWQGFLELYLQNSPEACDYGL

inhibition | SMILES
95% | COc1ccc(N(C(=O)CCl)C(C(=O)NCCc2ccccc2)c2cccs2)cc1Cl (stereo not given)
95% | COc1ccc(N(C(=O)CCl)C(C(=O)NC2CCCCC2)c2cccnc2)cc1 (stereo not given)
95% | C#CCCCCNC(=O)C(c1cccnc1)N(C(=O)CCl)c1ccc(F)cc1 (stereo not given)
100% | COc1ccc(C(C(=O)NC2CCCCC2)N(C(=O)CCl)c2cccc(Cl)c2)cc1 (stereo not given)
60% (inactive) | COc1ccc(C(C(=O)NC2CCCCC2)N(C(=O)CCl)c2ccc(Cl)cc2)cc1 (stereo not given)
90% | C#CCCCCNC(=O)C(c1ccc(OC)cc1)N(C(=O)CCl)c1cccc(Cl)c1 (stereo not given)
30% (inactive) | C#CCNC(=O)C(c1ccc(OC)cc1)N(C(=O)CCl)c1ccc(Cl)cc1 (stereo not given)
77% (inactive) | C#CCNC(=O)C(c1ccc(OC)cc1)N(C(=O)CCl)c1cccc(Cl)c1 (stereo not given)

The remaining lines, values behind:

SMILES | inhibition
C#CCN(CCCN(C(=O)CCl)c1ccc([N+](=O)[O-])cc1)C(=O)C(F)(F)F | 100%
O=C(NC1CCCCC1)C(c1cccnc1)N(C(=O)CCl)c1cccc(Cl)c1 (stereo not given) | 100%
O=C(NC1CCCCC1)C(c1cccnc1)N(C(=O)CCl)c1ccc(F)cc1 (stereo not given) | 100%
O=S(=O)(c1ccc(Cl)cc1)N1CCC2(CC1)CO2 | 17% (inactive)
CCOC(=O)c1sc(N(Cc2ccccc2)C(=O)CCl)nc1C | 65% (inactive)
C#CCCC(=O)NCCCN(C(=O)CCl)c1ccc([N+](=O)[O-])cc1 | 97%
Cc1cccc(CN2CCN(C(=O)CCl)CC2)c1 | 53% (inactive)
